Experiments:
MB49 tumors = test: WST11 VTP, Gemzar and combination in immune compromised Rag1 KO versus WT mice bearing MB49 tumors; format: in vivo; conditions: Kaplan-Meier
Experimental: • (i) Bacteriochlorophyll Derivatives—The Bchl derivatives and RGD-conjugates thereof were provided by Steba Biotech (Rehovot, Israel). […] Concentration was verified by spectrophotometric measurement. STL-7012 was provided as dipotassium salt. Working solution was prepared by dissolving STL-7012 K^+ salt in 5% mannitol solution (1 mg/ml). […] WST11 was supplied as a powder and kept in the dark at −20° C. Stock was prepared by dissolving WST11 in DDW containing 5% glucose and 0.67% mannitol, aliquoted and lyophilized. Working solution was reconstituted with DDW and the concentration of solution was confirmed spectrophotometrically. Alternatively, Clinical WST11 (batch: P00611, and 10-130611) was supplied as lyophilized formulation. Material was dissolved in 5% dextrose, aliquoted and stored at −20° C. […] Whole body imaging of luciferase-transfected tumors and metastases were recorded five minutes following 75 mg Kg^−1 intraperitoneal (i.p.) injection of D-luciferin with respective filter sets. • (vi) PDT treatment protocol: 4T1-Luc cells were grafted in the mammary pad of Balb/c mice. […]

[1] = system: splenic immune cells of 4T1-bearing mice; test: FACS profile of splenic immune cell populations in 4T1-bearing mice after STL-6014 PDT and Gemzar; format: in vivo
Experimental: • (i) Bacteriochlorophyll Derivatives—The Bchl derivatives and RGD-conjugates thereof were provided by Steba Biotech (Rehovot, Israel). […] Concentration was verified by spectrophotometric measurement. STL-7012 was provided as dipotassium salt. Working solution was prepared by dissolving STL-7012 K^+ salt in 5% mannitol solution (1 mg/ml). […] WST11 was supplied as a powder and kept in the dark at −20° C. Stock was prepared by dissolving WST11 in DDW containing 5% glucose and 0.67% mannitol, aliquoted and lyophilized. Working solution was reconstituted with DDW and the concentration of solution was confirmed spectrophotometrically. Alternatively, Clinical WST11 (batch: P00611, and 10-130611) was supplied as lyophilized formulation. Material was dissolved in 5% dextrose, aliquoted and stored at −20° C. At the day of treatment the aliquot was thawed, filtered and the concentration of solution was confirmed spectrophotometrically. • (ii) Chemotherapeutic drugs preparation and storage—Gemcitabine (GEM, Gemzar®, Lilly) was purchased from a local pharmacy as a powder, dissolved in saline to a concentration of 38 mg/ml, aliquoted and stored at −20° C. Aliquots were thawed, diluted with saline to a desired concentration and used on the same day at a dose of 75 mg/kg. Cyclophosphamide (CTX, Endoxan®, Baxter Oncology Gmbh, Germany) was purchased from a local pharmacy. A stock solution of 20 mg/ml was prepared by dissolving in 0.9% NaCl, aliquoted and stored at −20° C. Aliquots were thawed, diluted with saline if needed to a desired concentration and used on the same day prepared at indicated doses. • (iii) Murine cell lines—Mammary luciferase (luc)-labeled 4T1 cell line (4T1-Luc) was a kind gift from Dr. Zvi Granot (Faculty of Medicine, The Hebrew University of Jerusalem, Israel); melanoma B16-F10 cell line was obtained from the American Type Culture Collection (ATCC, Manassas, Va.); bladder MB49 cell line was a kind gift from James Allison (MSKCC, New York, USA), and luc-labeled MB49-cell line was established using the murine stem cell virus (MSCV)-puromycin-luc-GFP construct (kindly provided by Dr. Emily Cheng, Human Oncology and Pathogenesis Program, MSKCC). 4T1 and MB49 cells were maintained in DMEM medium and B16-F10 cells in RPMI medium supplemented with 1 mmol/L sodium pyruvate, 10% fetal calf serum (FCS), 250 μg/ml hygromycin, 0.06 mg/ml penicillin and 0.1 mg/ml streptomycin. The cells were grown as monolayer at 37° C. in a humidified atmosphere (5% CO2, 95% air). • (iv) Murine tumor models—Female, Balb/c mice (6-8 week old) were grafted either subcutaneously (s.c.) into the right hind leg or orthotopically with 1×10^6 4T1 cells suspended in 50 or 1000 PBS. For the rechallenge study, 2×10^5 4T1 cells were orthotopically grafted. For bladder cancer model, 5×10^4 of MB49 or MB49-luciferase cell line were s.c. injected into the right flank of C57B/6 male mice (7-8 weeks old, Taconic, Hudson, N.Y.) 15 days prior to VTP treatment. For the efficacy study of VTP in immune compromised mice, the same number of MB49 cells was injected in the flank of Rag^−/− on C57B/6 background or C57B/6 male mice (7-8 week old, Jackson Laboratory, Bar Harbor, Me.). […] Whole body imaging of luciferase-transfected tumors and metastases were recorded five minutes following 75 mg Kg^−1 intraperitoneal (i.p.) injection of D-luciferin with respective filter sets. • (vi) PDT treatment protocol: 4T1-Luc cells were grafted in the mammary pad of Balb/c mice. […]

SMILES	overall survival of immune compromised (Rag1 KO) mice compared with WT mice (MB49 tumors)	percentage of G-MDSC/neutrophils and M-MDSC in spleen compared to control ([1]; first week post treatment)	effect on Treg populations in spleen compared with controls ([1]; mouse, in vivo)	impact on MDSCs in spleen relative to control ([1]; second week post treatment)
CCC1c2cc3[n-]c(c(CC(=O)OC)c4nc(cc5[n-]c(cc(n2)C1C)c(C(C)=O)c5C)C(C)C4CCC(=O)[O-])c(C(=O)NCCS(=O)(=O)[O-])c3C.[K+].[K+].[Pd+2] (stereo not shown) [WST11, Palladium 3^1-oxo-15-methoxycarbonylmethyl-rhodobacteriochlorin 13^1-(2-sulfoethyl) amide dipotassium salt]	statistically significant decrease			
Nc1ccn([C@@H]2O[C@H](CO)[C@@H](O)C2(F)F)c(=O)n1 [Gemzar, Gemcitabine]		significantly reduced	Much smaller effects	diminished
